“And” between values parts separate entries of the source, which are not always exact repeats. Identical values can stand only once. Inconclusive results and toxic doses are left out. No stated cut-off is given here; in the data, active means T/C of 150% or more; inactive means T/C below 125%.
Tested on: L1210 leukemia ip in BDF1 mice, survival T/C
Assay: NCI In Vivo Anticancer Drug Screen. Data for tumor model L1210 Leukemia (intraperitoneal) in B6D2F1 (BDF1) mice
Conditions: endpoint: mean survival time, higher = longer survival
How it was run: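 Tumor was transplanted into mice, which were then dosed with test compound or vehicle alone. Survival was recorded for each group, and the treated figure was expressed relative to the control figure.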

[1] = dose: 50.0 mg/kg/injection, schedule: Q01DX001 (ip), vehicle: carboxymethylcellulose (CMC)
[2] = dose: 100.0 mg/kg/injection, schedule: Q01DX001 (ip), vehicle: carboxymethylcellulose (CMC)
[3] = dose: 200.0 mg/kg/injection, schedule: Q01DX001 (ip), vehicle: carboxymethylcellulose (CMC)
[4] = dose: 400.0 mg/kg/injection, schedule: Q01DX001 (ip), vehicle: carboxymethylcellulose (CMC)
[5] = dose: 100.0 mg/kg/injection, schedule: Q01DX009 (ip), vehicle: saline with Tween-80
[6] = dose: 100.0 mg/kg/injection, schedule: Q04DX003 (ip), vehicle: saline with Tween-80
[7] = dose: 200.0 mg/kg/injection, schedule: Q01DX009 (ip), vehicle: saline with Tween-80
[8] = dose: 200.0 mg/kg/injection, schedule: Q04DX003 (ip), vehicle: saline with Tween-80
[9] = dose: 400.0 mg/kg/injection, schedule: Q01DX009 (ip), vehicle: saline with Tween-80
[10] = dose: 400.0 mg/kg/injection, schedule: Q04DX003 (ip), vehicle: saline with Tween-80
[11] = dose: 100.0 mg/kg/injection, schedule: Q01DX001 (ip), vehicle: saline
[12] = dose: 200.0 mg/kg/injection, schedule: Q01DX001 (ip), vehicle: saline
[13] = dose: 400.0 mg/kg/injection, schedule: Q01DX001 (ip), vehicle: saline
[14] = dose: 100.0 mg/kg/injection, schedule: Q01DX009 (ip), vehicle: Klucel (hydroxypropylcellulose) (HPC)
[15] = dose: 200.0 mg/kg/injection, schedule: Q01DX009 (ip), vehicle: Klucel (hydroxypropylcellulose) (HPC)
[16] = dose: 400.0 mg/kg/injection, schedule: Q01DX009 (ip), vehicle: Klucel (hydroxypropylcellulose) (HPC)
[17] = dose: 100.0 mg/kg/injection, schedule: Q04DX002 (ip), vehicle: saline with Tween-80
[18] = dose: 200.0 mg/kg/injection, schedule: Q04DX002 (ip), vehicle: saline with Tween-80
[19] = dose: 400.0 mg/kg/injection, schedule: Q04DX002 (ip), vehicle: saline with Tween-80

Measured: T/C

O=C(CC(=O)C(F)(F)F)c1cccs1.O=C(CC(=O)C(F)(F)F)c1cccs1.O=C(CC(=O)C(F)(F)F)c1cccs1.[Cr]
inactive: dose: 100.0 mg/kg/injection, schedule: Q01DX001 (ip), vehicle: other 91 % of control | dose: 100.0 mg/kg/injection, schedule: Q04DX003 (ip), vehicle: other 97 % of control | dose: 200.0 mg/kg/injection, schedule: Q01DX001 (ip), vehicle: other 94 % of control | dose: 200.0 mg/kg/injection, schedule: Q04DX003 (ip), vehicle: other 103 % of control | dose: 400.0 mg/kg/injection, schedule: Q01DX001 (ip), vehicle: other 96 % of control | dose: 400.0 mg/kg/injection, schedule: Q04DX003 (ip), vehicle: other 94 % of control

CC(=Nc1ccccc1)C1=C(O)C(CC(C)C)NC1=O (stereo not given)
inactive: [1] 95 % of control | [2] 104 % of control | [3] 101 % of control | [4] 101 % of control

COc1ccc(C(=O)CCCC(=O)O)cc1
inactive: [1] 105 % of control | [2] 100 % of control | [3] 111 % of control | [4] 105 % of control

OCC(O)C(O)C(O)CN=Cc1ccccc1O (stereo not given)
inactive: dose: 75.0 mg/kg/injection, schedule: Q04DX002 (ip), vehicle: saline with Tween-80 106 % of control | dose: 150.0 mg/kg/injection, schedule: Q04DX002 (ip), vehicle: saline with Tween-80 98 % of control | dose: 300.0 mg/kg/injection, schedule: Q04DX002 (ip), vehicle: saline with Tween-80 109 % of control

CCOc1ccc(NC(=O)CCN2CCC(O)(c3ccccc3)CC2)cc1
inactive: [5] 96 % of control | [6] 103 % of control | [7] 86 % of control | [8] 100 % of control | [9] 91 % of control | [10] 95 % of control

Cc1cc(C)c(O)c(CN(Cc2cc(C)cc(C)c2O)C2CCCCC2)c1
inactive: [11] 96 % of control | [12] 88 % of control | [13] 88 % of control

CC1OCOC2COCOC2C1O (stereo not given)
inactive: [14] 92 % of control | [15] 94 % of control | [16] 97 % of control

N#C/C(=C/c1ccccc1)C(=O)O
inactive: [1] 87 % of control | [2] 96 % of control | [3] 107 % of control

CC1(C)N=C(N)N=C(N)N1c1ccc(Cl)c(C(F)(F)F)c1
inactive: dose: 8.33 mg/kg/injection, schedule: Q01DX009 (ip), vehicle: saline with Tween-80 115 % of control | dose: 8.8 mg/kg/injection, schedule: Q04DX003 (ip), vehicle: saline with Tween-80 107 % of control | dose: 12.5 mg/kg/injection, schedule: Q01DX009 (ip), vehicle: saline with Tween-80 118 % of control | dose: 13.3 mg/kg/injection, schedule: Q04DX003 (ip), vehicle: saline with Tween-80 104 % of control | dose: 20.0 mg/kg/injection, schedule: Q04DX003 (ip), vehicle: saline with Tween-80 101 % of control | dose: 25.0 mg/kg/injection, schedule: Q01DX009 (ip), vehicle: saline with Tween-80 116 % of control | dose: 30.0 mg/kg/injection, schedule: Q04DX003 (ip), vehicle: saline with Tween-80 106 % of control | dose: 33.0 mg/kg/injection, schedule: Q01DX009 (ip), vehicle: saline with Tween-80 118 % of control | dose: 45.0 mg/kg/injection, schedule: Q04DX003 (ip), vehicle: saline with Tween-80 115 % of control | dose: 50.0 mg/kg/injection, schedule: Q01DX009 (ip), vehicle: saline with Tween-80 98 % of control | [6] 108 % of control

O=C(CCCC(=O)N/N=C/c1cc(Cl)cc(Cl)c1O)N/N=C\c1cc(Cl)cc(Cl)c1O
inactive: dose: 50.0 mg/kg/injection, schedule: Q01DX001 (ip), vehicle: saline 100 % of control | [11] 97 % of control | [12] 100 % of control | [13] 97 % of control

Oc1ccc(C2N(c3ccccc3)CCN2c2ccccc2)cc1
inactive: [5] 111 % of control | [6] 92 % of control | [7] 103 % of control | [8] 97 % of control | [9] 89 % of control | [10] 101 % of control

Cc1cc(Cl)nc(Nc2nc3cc(Cl)c(Cl)cc3[nH]2)n1
inactive: dose: 12.5 mg/kg/injection, schedule: Q01DX009 (ip), vehicle: acetone 87 % of control and 92 % of control | dose: 12.5 mg/kg/injection, schedule: Q04DX003 (ip), vehicle: saline 95 % of control and 112 % of control | dose: 25.0 mg/kg/injection, schedule: Q01DX009 (ip), vehicle: acetone 87 % of control | dose: 25.0 mg/kg/injection, schedule: Q04DX003 (ip), vehicle: saline 94 % of control and 95 % of control | dose: 50.0 mg/kg/injection, schedule: Q01DX009 (ip), vehicle: acetone 88 % of control | dose: 50.0 mg/kg/injection, schedule: Q04DX003 (ip), vehicle: saline 94 % of control and 101 % of control | [11] 91 % of control | [12] 93 % of control | [13] 91 % of control

CCCCNC(=O)C1CCC(CC2CCCCC2)CC1 (stereo not given)
inactive: [17] 90 % of control | [18] 105 % of control | [19] 94 % of control

Cc1cccc(OC(=O)NC2CCCCC2)c1
inactive: [14] 118 % of control | dose: 100.0 mg/kg/injection, schedule: Q04DX003 (ip), vehicle: Klucel (hydroxypropylcellulose) (HPC) 102 % of control | [15] 114 % of control | dose: 200.0 mg/kg/injection, schedule: Q04DX003 (ip), vehicle: Klucel (hydroxypropylcellulose) (HPC) 95 % of control | [16] 106 % of control | dose: 400.0 mg/kg/injection, schedule: Q04DX003 (ip), vehicle: Klucel (hydroxypropylcellulose) (HPC) 96 % of control

S=C1SC2(CCCCCC2)NC2=C1CCCCC2
inactive: [17] 103 % of control | [18] 89 % of control | [19] 89 % of control

CCOC(=O)CCN(CCC(=O)OCC)C(C)C
inactive: [5] 100 % of control | [6] 101 % of control | [7] 90 % of control | [8] 101 % of control | [9] 98 % of control | [10] 101 % of control
